US20230183237A1, “COMPETITIVE AND NONCOMPETITIVE INHIBITORS OF THE MUSCARINIC ACETYLCHOLINE RECEPTOR M5” (Vanderbilt University, priority 2020, published 2023)
Read-outs that look alike come from different tables or passages of the source.

Molecular target: T1, hM5 (Homo sapiens, UniProt P08912)
T1 construct: expressed in transfected cells
T1 sequence (P08912 1-532): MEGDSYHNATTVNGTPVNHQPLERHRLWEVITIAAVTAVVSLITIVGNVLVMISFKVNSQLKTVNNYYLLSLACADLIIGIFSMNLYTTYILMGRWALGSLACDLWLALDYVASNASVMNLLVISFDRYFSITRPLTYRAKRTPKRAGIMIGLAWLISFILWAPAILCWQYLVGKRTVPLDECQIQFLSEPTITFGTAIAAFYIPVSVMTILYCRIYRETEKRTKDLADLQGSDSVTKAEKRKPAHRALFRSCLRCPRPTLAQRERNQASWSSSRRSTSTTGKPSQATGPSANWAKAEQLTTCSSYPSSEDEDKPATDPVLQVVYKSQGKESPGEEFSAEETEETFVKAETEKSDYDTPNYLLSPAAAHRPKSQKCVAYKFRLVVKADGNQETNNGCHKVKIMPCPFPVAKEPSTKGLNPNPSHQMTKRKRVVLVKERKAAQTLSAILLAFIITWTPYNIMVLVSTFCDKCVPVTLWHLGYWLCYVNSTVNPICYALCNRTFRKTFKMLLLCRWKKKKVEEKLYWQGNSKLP
Assay: Calcium mobilization concentration-response (IC50 vs EC80 acetylcholine), CHO hM5
Format: cell-based
Details: CELL LINE hM5, read-out: IC50
How it was run: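 IC50 values derive from percent maximal acetylcholine response after an EC80 ACh addition, measured as kinetic calcium fluorescence (static ratio, max−min). Test compounds were added 140 s before agonist. Cells: stable hM5-CHO in HEPES-buffered HBSS with 2.5 mM probenecid, pH 7.4; ≥3 independent triplicate determinations.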

[1] = calcium mobilization, EC80 acetylcholine addition

Row | IC50 [1] [nM] | IC50 (vs EC80 acetylcholine) [nM] | SMILES
1 | 9.8 |  | Cc1cc2ncnn2cc1C1CCN(S(=O)(=O)c2cnc3n2CCCC3)CC1 [Compound 322, 7-methyl-6-(1-((5,6,7,8-tetrahydroimidazo[1,2-a]pyridin-3-yl)sulfonyl)piperidin-4-yl)-[1,2,4]triazolo[1,5-a]pyridine]
2 | 899 |  | Cc1nc2cc(C)c(C3CCN(S(=O)(=O)c4cnn(C)c4C)CC3)cn2n1 [Compound 200, 6-(1-((1,5-dimethyl-1H-pyrazol-4-yl)sulfonyl)piperidin-4-yl)-2,7-dimethyl-[1,2,4]triazolo[1,5-a]pyridine]
3 |  | 150 | CCc1cc2ncnn2cc1C1CCN(S(=O)(=O)c2cnn3ccccc23)CC1 [Compound 509, 7-ethyl-6-(1-(pyrazolo[1,5-a]pyridin-3-ylsulfonyl)piperidin-4-yl)-[1,2,4]triazolo[1,5-a]pyridine]
4 | 125 |  | Cc1nn(C)c(Cl)c1S(=O)(=O)N1CCC(c2cn3ncnc3cc2F)CC1 [Compound 228, 6-(1-((5-chloro-1,3-dimethyl-1H-pyrazol-4-yl)sulfonyl)piperidin-4-yl)-7-fluoro-[1,2,4]triazolo[1,5-a]pyridine]
5 |  | 39 | Cc1cc2ncnn2cc1C1(F)CCN(S(=O)(=O)c2cnn3c2CCC3)CC1 [Compound 420, 6-(1-((5,6-dihydro-4H-pyrrolo[1,2-b]pyrazol-3-yl)sulfonyl)-4-fluoropiperidin-4-yl)-7-methyl-[1,2,4]triazolo[1,5-a]pyridine]
6 | > 10000 |  | COc1cc2ncnn2cc1C1CCN(S(=O)(=O)c2cc3c(cc2F)OCC3)CC1 [Compound 81, 6-(1-((6-fluoro-2,3-dihydrobenzofuran-5-yl)sulfonyl)piperidin-4-yl)-7-methoxy-[1,2,4]triazolo[1,5-a]pyridine]
7 |  | 777 | Cn1ncc(S(=O)(=O)N2CCC(c3ccc4ncnn4c3)CC2)c1C#N [Compound 432, 4-((4-([1,2,4]triazolo[1,5-a]pyridin-6-yl)piperidin-1-yl)sulfonyl)-1-methyl-1H-pyrazole-5-carbonitrile]
8 | 86 |  | [2H]C1([2H])Oc2cc(C)c(C3CCN(S(=O)(=O)c4cnn5c4OCCC5)CC3)cc2OC1([2H])[2H] [Compound 393, 3-((4-(7-methyl-2,3-dihydrobenzo[b][1,4]dioxin-6-yl-2,2,3,3-d4)piperidin-1-yl)sulfonyl)-6,7-dihydro-5H-pyrazolo[5,1-b][1,3]oxazine]
9 |  | > 10000 | [2H]C([2H])([2H])OCc1c(S(=O)(=O)N2CCC(c3cn4ncnc4cc3F)CC2)cnn1C [Compound 441, 7-fluoro-6-(1-((5-((methoxy-d3)methyl)-1-methyl-1H-pyrazol-4-yl)sulfonyl)piperidin-4-yl)-[1,2,4]triazolo[1,5-a]pyridine]
10 | > 10000 |  | Cc1cc(C#N)cnc1C1=CCN(S(=O)(=O)c2cnn(C)c2C)CC1 [Compound 209, 1′-((1,5-dimethyl-1H-pyrazol-4-yl)sulfonyl)-3-methyl-1′,2′,3′,6′-tetrahydro-[2,4′-bipyridine]-5-carbonitrile]
11 |  | 42 | Cc1cc2ncnn2cc1C1CCN(S(=O)(=O)c2cn(C)nn2)CC1 [Compound 572, 7-methyl-6-(1-((1-methyl-1H-1,2,3-triazol-4-yl)sulfonyl)piperidin-4-yl)-[1,2,4]triazolo[1,5-a]pyridine]
12 | 3000 |  | [2H]C([2H])([2H])n1cc(S(=O)(=O)N2CCC(c3cn4ncnc4cc3F)CC2)c(Cl)n1 [Compound 259, 6-(1-((3-chloro-1-(methyl-d3)-1H-pyrazol-4-yl)sulfonyl)piperidin-4-yl)-7-fluoro-[1,2,4]triazolo[1,5-a]pyridine]
13 |  | 6 | Cc1cc(S(=O)(=O)N2CCC(c3cn4ncnc4cc3C)CC2)sn1 [Compound 491, 3-methyl-5-((4-(7-methyl-[1,2,4]triazolo[1,5-a]pyridin-6-yl)piperidin-1-yl)sulfonyl)isothiazole]
14 | 2100 |  | Cc1nn(C)c(C(F)(F)F)c1S(=O)(=O)N1CCC(c2cn3ncnc3cc2F)CC1 [Compound 227, 6-(1-((1,3-dimethyl-5-(trifluoromethyl)-1H-pyrazol-4-yl)sulfonyl)piperidin-4-yl)-7-fluoro-[1,2,4]triazolo[1,5-a]pyridine]
15 |  | 68 | O=S(=O)(c1cnc2sccn12)N1CCC(c2cn3ncnc3cc2C(F)(F)F)CC1 [Compound 518, 5-((4-(7-(trifluoromethyl)-[1,2,4]triazolo[1,5-a]pyridin-6-yl)piperidin-1-yl)sulfonyl)imidazo[2,1-b]thiazole]
16 |  | 1390 | [2H]C1([2H])CC(c2cn3ncnc3cc2F)CC([2H])([2H])N1S(=O)(=O)c1cnc(C)o1 [Compound 567, 5-((4-(7-fluoro-[1,2,4]triazolo[1,5-a]pyridin-6-yl)piperidin-1-yl-2,2,6,6-d4)sulfonyl)-2-methyloxazole]
17 | 2300 |  | O=S(=O)(c1ccc2c(c1)CCO2)N1CCC(c2cn3ccccc3n2)CC1 [Compound 10, 2-(1-((2,3-dihydrobenzofuran-5-yl)sulfonyl)piperidin-4-yl)imidazo[1,2-a]pyridine]
18 | 2600 |  | Cc1nc(C)c(S(=O)(=O)N2CCC(c3nn4ccnc4cc3C)CC2)s1 [Compound 249, 2,4-dimethyl-5-((4-(7-methylimidazo[1,2-b]pyridazin-6-yl)piperidin-1-yl)sulfonyl)thiazole]
19 | > 10000 |  | Cc1c(S(=O)(=O)N2CCC(c3cn4ncnc4cc3F)CC2)cnn1C(F)F [Compound 230, 6-(1-((1-(difluoromethyl)-5-methyl-1H-pyrazol-4-yl)sulfonyl)piperidin-4-yl)-7-fluoro-[1,2,4]triazolo[1,5-a]pyridine]
20 | 176 |  | Cn1ncc(S(=O)(=O)N2CCC(c3cn4ncnc4cc3F)CC2)c1C(F)F [Compound 231, 6-(1-((5-(difluoromethyl)-1-methyl-1H-pyrazol-4-yl)sulfonyl)piperidin-4-yl)-7-fluoro-[1,2,4]triazolo[1,5-a]pyridine]
21 |  | 133 | Cc1cc2ncnn2nc1C1CCN(S(=O)(=O)c2cnc3sccn23)CC1 [Compound 535, 5-((4-(7-methyl-[1,2,4]triazolo[1,5-b]pyridazin-6-yl)piperidin-1-yl)sulfonyl)imidazo[2,1-b]thiazole]
22 | 85 |  | CCc1cc2ncnn2cc1C1CCN(S(=O)(=O)c2cnn(C)c2C(F)F)CC1 [Compound 301, 6-(1-((5-(difluoromethyl)-1-methyl-1H-pyrazol-4-yl)sulfonyl)piperidin-4-yl)-7-ethyl-[1,2,4]triazolo[1,5-a]pyridine]
23 |  | 534 | Cc1cc2ncnn2nc1C1CCN(S(=O)(=O)c2cnn3ccccc23)CC1 [Compound 546, 7-methyl-6-(1-(pyrazolo[1,5-a]pyridin-3-ylsulfonyl)piperidin-4-yl)-[1,2,4]triazolo[1,5-b]pyridazine]
24 | 25 |  | Cc1cc2ncnn2cc1C1CCN(S(=O)(=O)c2c(Cl)nn(C)c2C)CC1 [Compound 325, 6-(1-((3-chloro-1,5-dimethyl-1H-pyrazol-4-yl)sulfonyl)piperidin-4-yl)-7-methyl-[1,2,4]triazolo[1,5-a]pyridine]
25 |  | 3840 | Cc1cc(C(F)(F)F)ncc1C1CCN(S(=O)(=O)c2ccc3c(c2)CCO3)CC1 [Compound 399, 5-(1-((2,3-dihydrobenzofuran-5-yl)sulfonyl)piperidin-4-yl)-4-methyl-2-(trifluoromethyl)pyridine]
